Measured values from ChEMBL document CHEMBL3822442, “Synthesis and Pharmacological Characterization of Novel Glucagon-like Peptide-2 (GLP-2) Analogues with Low Systemic Clearance” (J Med Chem, 2016).
The source made the active and inactive calls. No cut-off for these calls is given here. Non-standard residues stand in square brackets, D forms with d. Residues, ends and D or L forms follow the SMILES beside them. ξ: configuration not given here. ξhPhe = NC(CCc1ccccc1)C(=O)O; ξ2Thi = NC(Cc1cccs1)C(=O)O; ξNle = CCCCC(N)C(=O)O

Tests used:
[1] = target: T1, Glucagon-like peptide 2 receptor (Homo sapiens, UniProt O95838); experiment: Agonist activity at human GLP2R expressed in HEK293 cells after 5 hrs by luciferase reporter gene assay; format: cell-based
T1 sequence (O95838 whole entry): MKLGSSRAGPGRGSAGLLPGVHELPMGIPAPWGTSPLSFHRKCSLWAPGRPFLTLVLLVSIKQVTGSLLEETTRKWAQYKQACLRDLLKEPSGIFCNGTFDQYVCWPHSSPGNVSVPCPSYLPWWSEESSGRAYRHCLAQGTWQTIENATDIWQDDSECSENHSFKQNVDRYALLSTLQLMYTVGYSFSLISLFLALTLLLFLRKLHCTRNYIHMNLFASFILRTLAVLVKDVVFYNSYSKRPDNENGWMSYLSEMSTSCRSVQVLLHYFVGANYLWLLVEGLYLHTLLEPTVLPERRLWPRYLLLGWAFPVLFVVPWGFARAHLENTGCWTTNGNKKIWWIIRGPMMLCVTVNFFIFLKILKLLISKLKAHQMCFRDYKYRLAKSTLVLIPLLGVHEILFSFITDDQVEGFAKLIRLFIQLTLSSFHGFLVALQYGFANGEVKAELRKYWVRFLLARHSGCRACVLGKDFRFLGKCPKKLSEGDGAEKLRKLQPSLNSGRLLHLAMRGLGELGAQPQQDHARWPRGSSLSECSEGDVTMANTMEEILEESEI

[2] = target: Glucagon receptor (Homo sapiens) (UniProt P47871); experiment: Agonist activity at human GCGR expressed in HEK293 cells up to 1000 nM after 5 hrs by luciferase reporter gene assay; format: cell-based
Sequence of Glucagon receptor (Homo sapiens) (P47871 whole entry): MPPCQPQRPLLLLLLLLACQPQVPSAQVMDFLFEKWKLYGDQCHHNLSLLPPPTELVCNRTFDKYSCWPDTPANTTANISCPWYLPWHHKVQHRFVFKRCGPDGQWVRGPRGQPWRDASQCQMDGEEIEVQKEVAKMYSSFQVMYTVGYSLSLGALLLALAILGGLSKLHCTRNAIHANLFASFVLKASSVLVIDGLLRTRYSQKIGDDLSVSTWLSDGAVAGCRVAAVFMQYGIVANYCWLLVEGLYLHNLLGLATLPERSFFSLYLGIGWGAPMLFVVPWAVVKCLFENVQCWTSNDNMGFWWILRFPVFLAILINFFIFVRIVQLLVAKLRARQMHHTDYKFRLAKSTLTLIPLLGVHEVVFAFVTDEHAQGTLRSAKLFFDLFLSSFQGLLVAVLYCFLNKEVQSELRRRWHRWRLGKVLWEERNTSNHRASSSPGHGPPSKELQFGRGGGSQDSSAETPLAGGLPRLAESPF

[3] = Systemic clearance in Sprague-Dawley rat at 0.2 mg/kg, iv through cassette dosing measured up to 300 mins by LC/MS/MS analysis; format: ADME, organism-based; details: in vivo
[4] = tested on: HEK293; experiment: Selectivity ratio of EC50 for human GLP1R expressed in HEK293 cells to EC50 for human GLP2R expressed in HEK293; format: cell-based
[5] = target: Glucagon-like peptide 1 receptor (Homo sapiens, UniProt P43220); experiment: Agonist activity at human GLP1R expressed in HEK293 cells after 5 hrs by luciferase reporter gene assay; format: cell-based
Sequence of Glucagon-like peptide 1 receptor (P43220 whole entry): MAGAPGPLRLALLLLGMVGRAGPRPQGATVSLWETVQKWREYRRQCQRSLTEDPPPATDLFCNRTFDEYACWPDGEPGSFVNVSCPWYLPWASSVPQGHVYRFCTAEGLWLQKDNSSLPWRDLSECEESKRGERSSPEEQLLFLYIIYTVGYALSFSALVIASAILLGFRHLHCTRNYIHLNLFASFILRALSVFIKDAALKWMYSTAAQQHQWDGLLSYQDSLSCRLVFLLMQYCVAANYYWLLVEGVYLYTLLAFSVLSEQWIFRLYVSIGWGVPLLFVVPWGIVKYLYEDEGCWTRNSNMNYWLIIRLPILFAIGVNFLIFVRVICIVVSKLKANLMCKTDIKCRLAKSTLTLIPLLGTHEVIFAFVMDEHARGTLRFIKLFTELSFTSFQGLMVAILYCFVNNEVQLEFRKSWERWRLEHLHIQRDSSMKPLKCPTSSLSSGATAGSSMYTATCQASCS

[6] = Protein binding in rat plasma at 200 to 1000 ng/ml incubated for 15 mins by LC/MS/MS based ultracentrifugation method; format: ADME, cell-free; details: read-out: PPB (converted)

EC50 [1] | Activity [2] | clearance [3] | EC50 [5] | fraction unbound at 0.25 h [6] | SMILES | Ratio EC50 [4]
0.2 nM | inactive | 6.1 mL/min/kg | > 1000 nM |  | CCCCC(NC(=O)[C@H](CCC(=O)O)NC(=O)[C@H](CC(=O)O)NC(=O)[C@H](CO)NC(=O)[C@H](Cc1ccccc1)NC(=O)[C@H](CO)NC(=O)CNC(=O)[C@H](CC(=O)O)NC(=O)CNC(=O)[C@@H](N)Cc1cnc[nH]1)C(=O)N[C@@H](CC(N)=O)C(=O)N[C@H](C(=O)N[C@H](C(=O)N[C@@H](CC(C)C)C(=O)N[C@@H](CC(=O)O)C(=O)NC(Cc1cccs1)C(=O)N[C@@H](CC(C)C)C(=O)N[C@@H](C)C(=O)N[C@@H](C)C(=O)N[C@@H](CCCNC(=N)N)C(=O)N[C@@H](CC(=O)O)C(=O)N[C@@H](Cc1ccccc1)C(=O)N[C@H](C(=O)N[C@@H](CC(N)=O)C(=O)N[C@@H](Cc1c[nH]c2ccccc12)C(=O)N[C@@H](CC(C)C)C(=O)N[C@H](C(=O)N[C@@H](CCC(N)=O)C(=O)N[C@H](C(=O)N[C@@H](CCCCN)C(N)=O)[C@@H](C)O)[C@@H](C)CC)[C@@H](C)CC)[C@@H](C)CC)[C@@H](C)O (stereo partly specified) (H-HGDGSFSDE[ξNle]NTILD[ξ2Thi]LAARDFINWLIQTK-NH2) | > 5000
0.14 nM | inactive | 5.9 mL/min/kg | > 1000 nM |  | CCCCC(NC(=O)[C@H](CCC(=O)O)NC(=O)[C@H](CC(=O)O)NC(=O)[C@H](CO)NC(=O)[C@H](Cc1ccccc1)NC(=O)[C@H](CO)NC(=O)CNC(=O)[C@H](CC(=O)O)NC(=O)CNC(=O)[C@@H](N)Cc1cnc[nH]1)C(=O)N[C@@H](CC(N)=O)C(=O)N[C@H](C(=O)N[C@H](C(=O)N[C@@H](CC(C)C)C(=O)N[C@@H](CC(=O)O)C(=O)N[C@@H](Cc1ccccc1)C(=O)N[C@@H](CC(C)C)C(=O)N[C@@H](C)C(=O)N[C@@H](C)C(=O)N[C@@H](CCCNC(=N)N)C(=O)N[C@@H](CC(=O)O)C(=O)N[C@@H](Cc1ccccc1)C(=O)N[C@H](C(=O)N[C@@H](CC(N)=O)C(=O)N[C@@H](Cc1c[nH]c2ccccc12)C(=O)N[C@@H](CC(C)C)C(=O)N[C@H](C(=O)N[C@@H](CCC(N)=O)C(=O)N[C@H](C(=O)N[C@@H](CCCCN)C(N)=O)[C@@H](C)O)[C@@H](C)CC)[C@@H](C)CC)[C@@H](C)CC)[C@@H](C)O (stereo partly specified) (H-HGDGSFSDE[ξNle]NTILDFLAARDFINWLIQTK-NH2) | > 7100
0.11 nM | inactive | 1.2 mL/min/kg | > 1000 nM |  | CCCCC(NC(=O)[C@H](CCC(=O)O)NC(=O)[C@H](CC(=O)O)NC(=O)[C@H](CO)NC(=O)[C@H](Cc1ccccc1)NC(=O)[C@H](CO)NC(=O)CNC(=O)[C@H](CC(=O)O)NC(=O)CNC(=O)[C@@H](N)Cc1cnc[nH]1)C(=O)N[C@@H](CC(N)=O)C(=O)N[C@H](C(=O)N[C@H](C(=O)N[C@@H](CC(C)C)C(=O)N[C@@H](CC(=O)O)C(=O)N[C@@H](Cc1ccc(O)cc1)C(=O)N[C@@H](CC(C)C)C(=O)N[C@@H](C)C(=O)N[C@@H](C)C(=O)N[C@@H](CCCNC(=N)N)C(=O)N[C@@H](CC(=O)O)C(=O)N[C@@H](Cc1ccccc1)C(=O)N[C@H](C(=O)N[C@@H](CC(N)=O)C(=O)N[C@@H](Cc1c[nH]c2ccccc12)C(=O)N[C@@H](CC(C)C)C(=O)N[C@H](C(=O)N[C@@H](CCC(N)=O)C(=O)N[C@H](C(=O)N[C@@H](CCCCN)C(N)=O)[C@@H](C)O)[C@@H](C)CC)[C@@H](C)CC)[C@@H](C)CC)[C@@H](C)O (stereo partly specified) (H-HGDGSFSDE[ξNle]NTILDYLAARDFINWLIQTK-NH2) | > 9000
0.15 nM | inactive | 0.5 mL/min/kg | > 1000 nM |  | CCCCC(NC(=O)[C@H](CCC(=O)O)NC(=O)[C@H](CC(=O)O)NC(=O)[C@H](CO)NC(=O)[C@H](Cc1ccccc1)NC(=O)[C@H](CO)NC(=O)CNC(=O)[C@H](CC(=O)O)NC(=O)CNC(=O)[C@@H](N)Cc1cnc[nH]1)C(=O)N[C@@H](CC(N)=O)C(=O)N[C@H](C(=O)N[C@H](C(=O)N[C@@H](CC(C)C)C(=O)N[C@@H](CC(=O)O)C(=O)N[C@@H](Cc1c[nH]c2ccccc12)C(=O)N[C@@H](CC(C)C)C(=O)N[C@@H](C)C(=O)N[C@@H](C)C(=O)N[C@@H](CCCNC(=N)N)C(=O)N[C@@H](CC(=O)O)C(=O)N[C@@H](Cc1ccccc1)C(=O)N[C@H](C(=O)N[C@@H](CC(N)=O)C(=O)N[C@@H](Cc1c[nH]c2ccccc12)C(=O)N[C@@H](CC(C)C)C(=O)N[C@H](C(=O)N[C@@H](CCC(N)=O)C(=O)N[C@H](C(=O)N[C@@H](CCCCN)C(N)=O)[C@@H](C)O)[C@@H](C)CC)[C@@H](C)CC)[C@@H](C)CC)[C@@H](C)O (stereo partly specified) (H-HGDGSFSDE[ξNle]NTILDWLAARDFINWLIQTK-NH2) | > 6600
0.11 nM | inactive | 0.44 mL/min/kg | > 1000 nM |  | CCCCC(NC(=O)[C@H](CCC(=O)O)NC(=O)[C@H](CC(=O)O)NC(=O)[C@H](CO)NC(=O)[C@H](Cc1ccccc1)NC(=O)[C@H](CO)NC(=O)CNC(=O)[C@H](CC(=O)O)NC(=O)CNC(=O)[C@@H](N)Cc1cnc[nH]1)C(=O)N[C@@H](CC(N)=O)C(=O)N[C@H](C(=O)N[C@H](C(=O)N[C@@H](CC(C)C)C(=O)N[C@@H](CC(=O)O)C(=O)NC(CCc1ccccc1)C(=O)N[C@@H](CC(C)C)C(=O)N[C@@H](C)C(=O)N[C@@H](C)C(=O)N[C@@H](CCCNC(=N)N)C(=O)N[C@@H](CC(=O)O)C(=O)N[C@@H](Cc1ccccc1)C(=O)N[C@H](C(=O)N[C@@H](CC(N)=O)C(=O)N[C@@H](Cc1c[nH]c2ccccc12)C(=O)N[C@@H](CC(C)C)C(=O)N[C@H](C(=O)N[C@@H](CCC(N)=O)C(=O)N[C@H](C(=O)N[C@@H](CCCCN)C(N)=O)[C@@H](C)O)[C@@H](C)CC)[C@@H](C)CC)[C@@H](C)CC)[C@@H](C)O (stereo partly specified) (H-HGDGSFSDE[ξNle]NTILD[ξhPhe]LAARDFINWLIQTK-NH2) | > 9000
0.08 nM |  |  | > 1000 nM | 0.024 | CCCC[C@H](NC(=O)[C@H](CCC(=O)O)NC(=O)[C@H](CC(=O)O)NC(=O)[C@H](CO)NC(=O)[C@H](Cc1ccccc1)NC(=O)[C@H](CO)NC(=O)CNC(=O)[C@H](CC(=O)O)NC(=O)CNC(=O)[C@@H](N)Cc1cnc[nH]1)C(=O)N[C@H](Cc1ccccc1)C(=O)N[C@H](C(=O)N[C@H](C(=O)N[C@@H](CC(C)C)C(=O)N[C@@H](CC(=O)O)C(=O)N[C@@H](CC(C)C)C(=O)N[C@@H](CC(C)C)C(=O)N[C@@H](C)C(=O)N[C@@H](C)C(=O)N[C@@H](CCCNC(=N)N)C(=O)N[C@@H](CC(=O)O)C(=O)N[C@@H](Cc1ccccc1)C(=O)N[C@H](C(=O)N[C@@H](CC(N)=O)C(=O)N[C@@H](Cc1c[nH]c2ccccc12)C(=O)N[C@@H](CC(C)C)C(=O)N[C@H](C(=O)N[C@@H](CCC(N)=O)C(=O)N[C@H](C(=O)N[C@@H](CCCCN)C(N)=O)[C@@H](C)O)[C@@H](C)CC)[C@@H](C)CC)[C@@H](C)CC)[C@@H](C)O | 
0.09 nM |  |  | 120 nM | 0.039 | CCCC[C@H](NC(=O)[C@H](CCC(=O)O)NC(=O)[C@H](CC(=O)O)NC(=O)[C@H](CO)NC(=O)[C@H](Cc1ccccc1)NC(=O)[C@H](CO)NC(=O)CNC(=O)[C@H](CC(=O)O)NC(=O)CNC(=O)[C@@H](N)Cc1cnc[nH]1)C(=O)N[C@H](Cc1ccccc1)C(=O)N[C@H](C(=O)N[C@H](C(=O)N[C@@H](CC(C)C)C(=O)N[C@@H](CC(=O)O)C(=O)N[C@@H](CC(N)=O)C(=O)N[C@@H](CC(C)C)C(=O)N[C@@H](C)C(=O)N[C@@H](C)C(=O)N[C@@H](CCCNC(=N)N)C(=O)N[C@@H](CC(=O)O)C(=O)N[C@@H](Cc1ccccc1)C(=O)N[C@H](C(=O)N[C@@H](CC(N)=O)C(=O)N[C@@H](Cc1c[nH]c2ccccc12)C(=O)N[C@@H](CC(C)C)C(=O)N[C@H](C(=O)N[C@@H](CCC(N)=O)C(=O)N[C@H](C(=O)N[C@@H](CCCCN)C(N)=O)[C@@H](C)O)[C@@H](C)CC)[C@@H](C)CC)[C@@H](C)CC)[C@@H](C)O | 
0.42 nM | inactive | 0.13 mL/min/kg | > 1000 nM |  | CCCCC(NC(=O)[C@H](CCC(=O)O)NC(=O)[C@H](CC(=O)O)NC(=O)[C@H](CO)NC(=O)[C@H](Cc1ccccc1)NC(=O)[C@H](CO)NC(=O)CNC(=O)[C@H](CC(=O)O)NC(=O)CNC(=O)[C@@H](N)Cc1cnc[nH]1)C(=O)N[C@@H](CC(N)=O)C(=O)N[C@H](C(=O)N[C@H](C(=O)N[C@@H](CC(C)C)C(=O)N[C@@H](CC(=O)O)C(=O)N[C@@H](Cc1cnc[nH]1)C(=O)N[C@@H](CC(C)C)C(=O)N[C@@H](C)C(=O)N[C@@H](C)C(=O)N[C@@H](CCCNC(=N)N)C(=O)N[C@@H](CC(=O)O)C(=O)N[C@@H](Cc1ccccc1)C(=O)N[C@H](C(=O)N[C@@H](CC(N)=O)C(=O)N[C@@H](Cc1c[nH]c2ccccc12)C(=O)N[C@@H](CC(C)C)C(=O)N[C@H](C(=O)N[C@@H](CCC(N)=O)C(=O)N[C@H](C(=O)N[C@@H](CCCCN)C(N)=O)[C@@H](C)O)[C@@H](C)CC)[C@@H](C)CC)[C@@H](C)CC)[C@@H](C)O (stereo partly specified) (H-HGDGSFSDE[ξNle]NTILDHLAARDFINWLIQTK-NH2) | > 2300
